From PMC6979384, “Characterization of the plant homeodomain (PHD) reader family for their histone tail interactions” (Epigenetics & Chromatin, 2020)
Where no end group is shown, it is not given here. [ ]: non-standard residue; d: D form. Lys(Me3) = C[N+](C)(C)CCCC[C@H](N)C(=O)O; Me3 = trimethyl (on lysine side chain); Lys(Me) = CNCCCC[C@H](N)C(=O)O

What was measured:
Test in all cases: Histone peptide microarray
Format in all cases: binding, human
Conditions in all cases: sheet "Array Heatmap"
[1] = test system: MLL5
Method in brief: (§1)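 Recombinant GST-PHD protein at 0.5 μM; 293-member modified histone peptide array; signals averaged from four repeats ± SD.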

[2] = test system: AIRE (PP)
Method in brief: as §1

[3] = test system: SP140L
Method in brief: as §1

[4] = test system: CHD5 (PCC)
Method in brief: as §1

[5] = test system: ING4
Method in brief: as §1

[6] = test system: RAG2
Method in brief: as §1

[7] = test system: PHF21A
Method in brief: as §1

[8] = test system: CHD4 (PPCC)
Method in brief: as §1

[9] = test system: ING2
Method in brief: as §1

[10] = test system: KDM5B (1)
Method in brief: as §1

[11] = test system: BPTF (PB)
Method in brief: as §1

[12] = test system: ING3
Method in brief: as §1

[13] = test system: ING1
Method in brief: as §1

[14] = test system: TAF3
Method in brief: as §1

[15] = test system: KDM5A (3)
Method in brief: as §1

[16] = test system: KDM4C (TTP)
Method in brief: as §1

[17] = test system: KDM7A
Method in brief: as §1

[18] = test system: DPF2 (PPC2W2)
Method in brief: as §1

[19] = test system: KDM5A (1)
Method in brief: as §1

[20] = test system: PHF13
Method in brief: as §1

[21] = test system: PHF8
Method in brief: as §1

[22] = test system: ING5
Method in brief: as §1

[23] = test system: PHF23
Method in brief: as §1

[24] = test system: CHD5 (PPCC)
Method in brief: as §1

[25] = test system: MORC3 (CW)
Method in brief: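 A peptide microarray holding 293 synthetic histone peptides with individual or combinatorial modifications was probed with each GST-PHD protein at 0.5 μM. Values represent mean intensity (±SD) from four replicates.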

[26] = test system: DIDO1
Method in brief: as §1

[27] = test system: BAZ2B
Method in brief: as §1

[28] = test system: PHF2
Method in brief: as §1

[29] = test system: TRIM66 (PB)
Method in brief: as §1

[30] = test system: KDM5B (3)
Method in brief: as §1

[31] = test system: PHRF1 (RP)
Method in brief: as §1

[32] = GST-tagged reader, histone peptide array, total n = 4

In the case of “H3K56me3 (52-61): H3 52-61 (RRYQK(Me3)STELL; UniProt P68431 53-62, looked up, fragment)”, the “Array Heatmap signal, MLL5” value ([1]; GST-tagged MLL5, arrays performed twice, total replicate number n = 4) is reported as 0.5095, the “Array Heatmap signal, AIRE (PP)” value ([2]; GST-tagged AIRE (PP), arrays performed twice, total replicate number n = 4) is reported as 0.4132 and the “Array Heatmap signal, SP140L” value ([3]; GST-tagged SP140L, arrays performed twice, total replicate number n = 4) is reported as 0.3549. For the same substance, the “Array Heatmap signal, CHD5 (PCC)” value ([4]; GST-tagged CHD5 (PCC), arrays performed twice, total replicate number n = 4) was 0.7613, the “Array Heatmap signal, ING4” value ([5]; GST-tagged ING4, arrays performed twice, total replicate number n = 4) was 0.4217 and the “Array Heatmap signal, RAG2” value ([6]; GST-tagged RAG2, arrays performed twice, total replicate number n = 4) was 0.2347. For the same substance, the “Array Heatmap signal, PHF21A” value ([7]; GST-tagged PHF21A, arrays performed twice, total replicate number n = 4) was 0.4399, the “Array Heatmap signal, CHD4 (PPCC)” value ([8]; GST-tagged CHD4 (PPCC), arrays performed twice, total replicate number n = 4) was 0.5342 and the “Array Heatmap signal, ING2” value ([9]; GST-tagged ING2, arrays performed twice, total replicate number n = 4) was 0.5755. The “Array Heatmap signal, KDM5B (1)” value ([10]; GST-tagged KDM5B (1), arrays performed twice, total replicate number n = 4) was 0.6393, the “Array Heatmap signal, BPTF (PB)” value ([11]; GST-tagged BPTF (PB), arrays performed twice, total replicate number n = 4) was 0.343 and the “Array Heatmap signal, ING3” value ([12]; GST-tagged ING3, arrays performed twice, total replicate number n = 4) was 0.4641. The “Array Heatmap signal, ING1” value ([13]; GST-tagged ING1, arrays performed twice, total replicate number n = 4) was 0.5013, the “Array Heatmap signal, TAF3” value ([14]; GST-tagged TAF3, arrays performed twice, total replicate number n = 4) was 0.2469 and the “Array Heatmap signal, KDM5A (3)” value ([15]; GST-tagged KDM5A (3), arrays performed twice, total replicate number n = 4) was 0.4564. The “Array Heatmap signal, KDM4C (TTP)” value ([16]; GST-tagged KDM4C (TTP), arrays performed twice, total replicate number n = 4) was 0.4664, the “Array Heatmap signal, KDM7A” value ([17]; GST-tagged KDM7A, arrays performed twice, total replicate number n = 4) was 0.3588 and the “Array Heatmap signal, DPF2 (PPC2W2)” value ([18]; GST-tagged DPF2 (PPC2W2), arrays performed twice, total replicate number n = 4) was 0.6082. For the same substance, the “Array Heatmap signal, KDM5A (1)” value ([19]; GST-tagged KDM5A (1), arrays performed twice, total replicate number n = 4) was 0.4335, the “Array Heatmap signal, PHF13” value ([20]; GST-tagged PHF13, arrays performed twice, total replicate number n = 4) was 0.5794 and the “Array Heatmap signal, PHF8” value ([21]; GST-tagged PHF8, arrays performed twice, total replicate number n = 4) was 0.3607. For the same substance, the “Array Heatmap signal, ING5” value ([22]; GST-tagged ING5, arrays performed twice, total replicate number n = 4) was 0.3269, the “Array Heatmap signal, PHF23” value ([23]; GST-tagged PHF23, arrays performed twice, total replicate number n = 4) was 0.5132 and the “Array Heatmap signal, CHD5 (PPCC)” value ([24]; GST-tagged CHD5 (PPCC), arrays performed twice, total replicate number n = 4) was 0.5162. The “Array Heatmap signal, MORC3 (CW)” value ([25]; GST-tagged MORC3 (CW), arrays performed twice, total replicate number n = 4) was 0.3573, the “Array Heatmap signal, DIDO1” value ([26]; GST-tagged DIDO1, arrays performed twice, total replicate number n = 4) was 0.6681 and the “Array Heatmap signal, BAZ2B” value ([27]; GST-tagged BAZ2B, arrays performed twice, total replicate number n = 4) was 0.4232. For the same substance, the “Array Heatmap signal, PHF2” value ([28]; GST-tagged PHF2, arrays performed twice, total replicate number n = 4) was 0.4592, the “Array Heatmap signal, TRIM66 (PB)” value ([29]; GST-tagged TRIM66 (PB), arrays performed twice, total replicate number n = 4) was 0.5682 and the “Array Heatmap signal, KDM5B (3)” value ([30]; GST-tagged KDM5B (3), arrays performed twice, total replicate number n = 4) was 0.4529. The “Array Heatmap signal, PHRF1 (RP)” value ([31]; GST-tagged PHRF1 (RP), arrays performed twice, total replicate number n = 4) was 0.4158.

In the case of “H3K79me1: H3 74-84 (IAQDF[Lys(Me)]TDLRF; UniProt P68431 75-85, looked up, fragment) [Peptide H3K79me1]”, the “Array Heatmap signal, MLL5” value [1, 32] is reported as 0.6083, the “Array Heatmap signal, AIRE (PP)” value [2, 32] is reported as 0.5028 and the “Array Heatmap signal, SP140L” value [3, 32] is reported as 0.3558. For the same substance, the “Array Heatmap signal, CHD5 (PCC)” value [4, 32] was 0.8253, the “Array Heatmap signal, ING4” value [5, 32] was 0.4724 and the “Array Heatmap signal, RAG2” value [6, 32] was 0.2827. For the same substance, the “Array Heatmap signal, PHF21A” value [7, 32] was 0.4933, the “Array Heatmap signal, CHD4 (PPCC)” value [8, 32] was 0.5797 and the “Array Heatmap signal, ING2” value [9, 32] was 0.6117. For the same substance, the “Array Heatmap signal, KDM5B (1)” value [10, 32] was 0.6942, the “Array Heatmap signal, BPTF (PB)” value [11, 32] was 0.3836 and the “Array Heatmap signal, ING3” value [12, 32] was 0.5268. The “Array Heatmap signal, ING1” value [13, 32] was 0.5242, the “Array Heatmap signal, TAF3” value [14, 32] was 0.2923 and the “Array Heatmap signal, KDM5A (3)” value [15, 32] was 0.5745. The “Array Heatmap signal, KDM4C (TTP)” value [16, 32] was 0.5424, the “Array Heatmap signal, KDM7A” value [17, 32] was 0.422 and the “Array Heatmap signal, DPF2 (PPC2W2)” value [18, 32] was 0.6501. For the same substance, the “Array Heatmap signal, KDM5A (1)” value [19, 32] was 0.5083, the “Array Heatmap signal, PHF13” value [20, 32] was 0.6611 and the “Array Heatmap signal, PHF8” value [21, 32] was 0.4078. The “Array Heatmap signal, ING5” value [22, 32] was 0.4005, the “Array Heatmap signal, PHF23” value [23, 32] was 0.5609 and the “Array Heatmap signal, CHD5 (PPCC)” value [24, 32] was 0.6031. The “Array Heatmap signal, MORC3 (CW)” value [25, 32] was 0.4301, the “Array Heatmap signal, DIDO1” value [26, 32] was 0.782 and the “Array Heatmap signal, BAZ2B” value [27, 32] was 0.4958. The “Array Heatmap signal, PHF2” value [28, 32] was 0.4403, the “Array Heatmap signal, TRIM66 (PB)” value [29, 32] was 0.6065 and the “Array Heatmap signal, KDM5B (3)” value [30, 32] was 0.5123. For the same substance, the “Array Heatmap signal, PHRF1 (RP)” value [31, 32] was 0.4478.

With “H3K79me3: H3 74-84 (IAQDF[Lys(Me3)]TDLRF; UniProt P68431 75-85, looked up, fragment) [Peptide H3K79me3]” the “Array Heatmap signal, MLL5” value [1, 32] was 0.5385, the “Array Heatmap signal, AIRE (PP)” value [2, 32] was 0.4525 and the “Array Heatmap signal, SP140L” value [3, 32] was 0.3582. For the same substance, the “Array Heatmap signal, CHD5 (PCC)” value [4, 32] was 0.767, the “Array Heatmap signal, ING4” value [5, 32] was 0.4605 and the “Array Heatmap signal, RAG2” value [6, 32] was 0.2475. The “Array Heatmap signal, PHF21A” value [7, 32] was 0.4782, the “Array Heatmap signal, CHD4 (PPCC)” value [8, 32] was 0.5886 and the “Array Heatmap signal, ING2” value [9, 32] was 0.6086. For the same substance, the “Array Heatmap signal, KDM5B (1)” value [10, 32] was 0.6382, the “Array Heatmap signal, BPTF (PB)” value [11, 32] was 0.3567 and the “Array Heatmap signal, ING3” value [12, 32] was 0.4762. For the same substance, the “Array Heatmap signal, ING1” value [13, 32] was 0.5877, the “Array Heatmap signal, TAF3” value [14, 32] was 0.2594 and the “Array Heatmap signal, KDM5A (3)” value [15, 32] was 0.4757. The “Array Heatmap signal, KDM4C (TTP)” value [16, 32] was 0.4877, the “Array Heatmap signal, KDM7A” value [17, 32] was 0.3373 and the “Array Heatmap signal, DPF2 (PPC2W2)” value [18, 32] was 0.6998. For the same substance, the “Array Heatmap signal, KDM5A (1)” value [19, 32] was 0.4539, the “Array Heatmap signal, PHF13” value [20, 32] was 0.6042 and the “Array Heatmap signal, PHF8” value [21, 32] was 0.3681. The “Array Heatmap signal, ING5” value [22, 32] was 0.3656, the “Array Heatmap signal, PHF23” value [23, 32] was 0.5318 and the “Array Heatmap signal, CHD5 (PPCC)” value [24, 32] was 0.5544. The “Array Heatmap signal, MORC3 (CW)” value [25, 32] was 0.3856, the “Array Heatmap signal, DIDO1” value [26, 32] was 0.7358 and the “Array Heatmap signal, BAZ2B” value [27, 32] was 0.458. For the same substance, the “Array Heatmap signal, PHF2” value [28, 32] was 0.5812, the “Array Heatmap signal, TRIM66 (PB)” value [29, 32] was 0.557 and the “Array Heatmap signal, KDM5B (3)” value [30, 32] was 0.4402. For the same substance, the “Array Heatmap signal, PHRF1 (RP)” value [31, 32] was 0.4811.
